Measured values reported in patent US20150278436A1, “Methods For Evaluating Effects Of A Treatment On Biological Processes And Pathways” (The Procter & Gamble Company, priority 2014, published 2015).

Columns and labels:
Format in all cases: cell-based
[1] = test system: cholesterol metabolism processes/pathways; test: Percentile of treatment anti-aging effect on Gene Ontology processes/pathways (FIG. 6); details: for effect on the cholesterol metabolism processes/pathways: processes/pathways 100a-h, associated with fibroblasts
From the text: (§1) In general, the method computes a distance between two vectors (i.e., a vector distance), and determines the statistical significance of the vector distance to assess the effect of a treatment on a particular biological pathway. The first of the two vectors is a set of expression changes representing the treatment effect of an ingredient on genes in the biological pathway, and includes one value for each of the genes in the biological pathway. The second of the vectors is a set of expression changes representing the effect of the condition on the genes of the biological pathway. By comparing the vector distance between the two vectors against an empirical distribution of vector distances, the significance of the effect of the treatment on the biological pathway can be determined. The genes corresponding to each biological pathway/process and represented in each of the vectors are specified by Gene Ontology, KEGG pathway, WikiPathway, and/or any other known source.
Specific methods and calculations will now be described using the examples above in which the target treatment is Pal-KTTKS (and others) and the target condition is aging of skin cells. Throughout, UV-mediated aging may also be referred to as “photo-aging,” and cells subject to photo-aging may be referred to as “UV-exposed skin cells” or “skin cells exposed to UV radiation.” Similarly, non-UV-mediated aging may also be referred to as “intrinsic aging,” and cells subject to intrinsic aging may be referred to as “non-UV-exposed skin cells.” The treatment effect—in this case the anti-aging effect—of a specified ingredient (e.g., Pal-KTTKS) is measured by the vector distance (e.g., cosine distance) between two vectors of expression changes (e.g., log 2 fold expression changes) of genes in a target biological process. […]
(§2) While the vector distance for a treatment and a target biological pathway is indicative of the effect of the treatment on the target biological pathway, the vector distance by itself is not indicative of the significance of the effect relative to other effects on other biological pathways. The statistical significance of a particular vector distance may be extrapolated from an empirical distribution of vector distances calculated using reference genomics data such as connectivity map (CMap) genomics data. […]
Using the distributions, a percentile may be calculated for the vector distance between the clinical and treatment vectors. Specifically, the percentile among the extreme region of the distribution for the i-th target biological process is calculated according to […]

[2] = test system: ATPase regulation processes/pathways; test: Percentile of treatment anti-aging effect on Gene Ontology processes/pathways (FIG. 7)
From the text: as §1, with “The genes corresponding to each biological pathway/process and represented in each of the vectors are specified by Gene Ontology, KEGG pathway, WikiPathway, and/or any other known source.” left out
as §2

[3] = test system: innate and adaptive immunity processes/pathways; test: Percentile of treatment anti-aging effect on Gene Ontology processes/pathways (FIG. 8)
From the text: as §1, with “The genes corresponding to each biological pathway/process and represented in each of the vectors are specified by Gene Ontology, KEGG pathway, WikiPathway, and/or any other known source.” left out
as §2

[4] = test system: cholesterol biosynthesis pathway; test: Vector (cosine) distance between treatment and clinical aging gene expression vectors, with percentile in the reference genomics distribution (FIG. 4)
From the text: as §1
In the case of a study of the effects of a particular agent, Pal-KTTKS (e.g., at 3 ppm concentrations), on aging of skin cells, for example, a particular biological process may be targeted. For each of the genes in the target biological process, the expression changes (e.g., log 2 fold changes) between old and young cells may be calculated for cells exposed to ultraviolet (UV) radiation (e.g., cells taken from the arms), for cells not exposed to UV radiation (e.g., cells taken from the buttocks), or for both. That is, the condition genomics data 34 may be compared to the control genomics data 33 to determine the expression change for each of the genes in the target biological process. The expression changes between treated and untreated cells may also be calculated for each of the genes in the target biological process, which in some implementations may include comparing the control genomics data 33 to the treatment genomics data 32. Each set of expression changes (where each set comprises an expression change for each of the genes in the target biological process) forms a corresponding vector, and the vector for the treatment effect (also referred to hereafter as the “treatment vector”) is compared to the vector for the reference effect (e.g., the vector for old/young cells), which is also referred to herein as a “clinical vector,” by taking the distance (e.g., cosine distance) between the vectors.
Specific methods and calculations will now be described using the examples above in which the target treatment is Pal-KTTKS (and others) and the target condition is aging of skin cells. Throughout, UV-mediated aging may also be referred to as “photo-aging,” and cells subject to photo-aging may be referred to as “UV-exposed skin cells” or “skin cells exposed to UV radiation.” Similarly, non-UV-mediated aging may also be referred to as “intrinsic aging,” and cells subject to intrinsic aging may be referred to as “non-UV-exposed skin cells.” The treatment effect—in this case the anti-aging effect—of a specified ingredient (e.g., Pal-KTTKS) is measured by the vector distance (e.g., cosine distance) between two vectors of expression changes (e.g., log 2 fold expression changes) of genes in a target biological process. One of the vectors compares treatment genomics data for the genes with control genomics data for the genes to represent the treatment effects on the genes (i.e., a “treatment effect vector” or “treatment vector” of the ingredient). […]

Molecule: NC(=O)c1cccnc1 [Niacinamide]
- percentile for steroid metabolic process (100b) ([1]; columns D and E, only single process below exemplary threshold): < 5%
- effect on the cholesterol metabolism processes/pathways ([1]; FIG. 6): likely does not strongly affect
- effect on the ATPase regulation processes/pathways overall [2]: almost no effect
- effect on the set 140 of innate and adaptive immunity pathways [3]: strong effect
- percentile values for innate and adaptive immunity processes/pathways ([3]; many of the percentile values, example threshold): < 5%

Molecule: Pal-KTTKS
- calculated percentile of vector distance in distribution from fibroblast reference genomics data, UV-mediated aging ([4]; 3 ppm on fibroblast cells, UV-exposed cells): 0.36
- cosine distance with the photo aging vector ([4]; 3 ppm on fibroblast cells, UV-exposed cells clinical vector, cholesterol biosynthesis pathway): −0.640
- calculated percentile of vector distance in distribution from fibroblast reference genomics data, intrinsic aging ([4]; 3 ppm on fibroblast cells, non-UV-exposed cells): 0.22
- cosine distance with the intrinsic aging vector ([4]; 3 ppm on fibroblast cells, non-UV-exposed cells clinical vector, cholesterol biosynthesis pathway): −0.720
- anti-aging benefit on the cholesterol synthesis pathway ([4]; both intrinsic and UV-mediated aging): strong anti-aging benefit
- percentile values for each of the biological processes/pathways 100a-h ([1]; cholesterol metabolism set, FIG. 6): very low percentile values
- effect on the cholesterol metabolism processes/pathways ([1]; FIG. 6): very strong effect
- effect on the ATPase regulation processes/pathways overall [2]: almost no effect
